In patent publication US10590086B2, “Pharmaceutical compound” (IOmet Pharma Ltd., priority 2014, dated 2020):

Key:
IDO [1] = molecular target: T1, IDO (Homo sapiens, UniProt P14902); assay: SKOV3 kynurenine cell-based assay (IDO induced by IFN-γ); parameters: IDO expression was induced in the SKOV3 cells by the addition of 500 ng/ml IFN-γ; endogenous in cells; host or cells: SKOV3 (human ovarian adenocarcinoma), induced with IFN-γ; conditions: 48 hours, read-out: SKOV3 Kynurenine cell based assay pIC50 (converted)
T1 sequence (P14902 whole entry): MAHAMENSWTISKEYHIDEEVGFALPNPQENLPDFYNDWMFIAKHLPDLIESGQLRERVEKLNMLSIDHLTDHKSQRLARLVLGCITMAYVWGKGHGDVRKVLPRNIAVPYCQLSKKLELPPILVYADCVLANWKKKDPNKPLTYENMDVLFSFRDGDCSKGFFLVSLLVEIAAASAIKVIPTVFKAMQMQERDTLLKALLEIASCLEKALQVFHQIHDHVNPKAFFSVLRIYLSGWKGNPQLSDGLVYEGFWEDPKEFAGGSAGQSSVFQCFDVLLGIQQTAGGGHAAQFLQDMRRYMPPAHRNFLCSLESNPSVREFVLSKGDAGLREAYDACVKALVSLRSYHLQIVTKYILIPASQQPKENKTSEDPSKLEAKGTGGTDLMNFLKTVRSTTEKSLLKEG
Method in brief: (§1)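 First, A172 or SKOV3 cells were seeded in phenol red-free RPMI, 10% FCS, 2 mM L-glutamine, 500 μM L-tryptophan; SKOV3 received 500 ng/ml IFN-γ for IDO induction. Next came compound exposure, 48 hours, 37° C. Finally, cells were spun out, supernatant treated with Erhlich's reagent, absorbance read at 490 nm.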

IDO [2] = molecular target: T1, IDO; assay: hIDO biochemical coupled assay; conditions: 45 μM L-tryptophan, read-out: hIDO biochemical assay pIC50 (converted)
TDO [3] = molecular target: T2, TDO (Homo sapiens, UniProt P48775); assay: hTDO biochemical coupled assay; conditions: 330 μM L-tryptophan, read-out: hTDO biochemical assay pIC50 (converted)
T2 sequence (P48775 whole entry): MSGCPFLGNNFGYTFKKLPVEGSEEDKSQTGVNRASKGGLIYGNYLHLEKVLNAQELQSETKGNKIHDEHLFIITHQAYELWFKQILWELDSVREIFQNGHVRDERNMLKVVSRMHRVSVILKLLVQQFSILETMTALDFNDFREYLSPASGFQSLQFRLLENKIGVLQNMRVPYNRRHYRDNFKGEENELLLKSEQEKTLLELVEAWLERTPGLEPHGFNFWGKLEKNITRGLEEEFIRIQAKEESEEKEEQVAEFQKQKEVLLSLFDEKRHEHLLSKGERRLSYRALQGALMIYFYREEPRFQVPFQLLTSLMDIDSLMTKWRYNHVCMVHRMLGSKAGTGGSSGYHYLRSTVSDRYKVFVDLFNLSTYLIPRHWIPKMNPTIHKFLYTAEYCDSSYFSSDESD
Description: Two different assays were employed: 1. a cell-based assay for detecting the effect of test compounds on kynurenine production in two different cancer cell types. This assay utilised cancer cells which expressed either TDO or IDO and as such was used as a means of testing compound activity at these two enzymes in a cell-based context. 2. a TDO and IDO biochemical coupled assay which utilised recombinantly produced and purified TDO and IDO enzymes in combination with the enzyme formamidase. This coupled enzyme system allowed conversion of N-formylkynurenine produced by TDO or IDO activity to kynurenine which was then quantified by fluorescence following addition of Erhlich's Reagent The protocols for these are set out below.

TDO [4] = molecular target: T2, TDO; assay: A172 kynurenine cell-based assay; parameters: This assay utilised cancer cells which expressed either TDO or IDO; endogenous in cells; host or cells: A172 (human glioblastoma); conditions: A172 human glioblastoma cells, 48 hours, read-out: A172 Kynurenine cell based assay pIC50 (converted)
Method in brief: as §1

[5] = SKOV3 human ovarian adenocarcinoma cells, 500 ng/ml IFN-γ, 500 μM L-tryptophan
[6] = SKOV3 cells, IDO induced by 500 ng/ml IFN-γ

| SMILES | IC50 (IDO [1]; [5]) | IC50 (IDO [2]; 17 minutes, room temperature) | IC50 (TDO [3]; 17 minutes, room temperature) | IC50 (TDO [4]; 500 μM L-tryptophan) | IC50 (IDO [1]; [6]) | IC50 (IDO [2]) | IC50 (TDO [3]) | IC50 (TDO [4]) |
| --- | --- | --- | --- | --- | --- | --- | --- | --- |
| c1ccc(Nc2cccc3[nH]ncc23)cc1 [Compound 36] | > 100 µM | > 100 µM | < 3.16 µM | 3.24 to 31.6 µM | – | – | – | – |
| CS(=O)(=O)N1CCC(c2cc(Cl)cc3[nH]ncc23)CC1 [Compound 40, 6-chloro-4-(1-(methylsulfonyl)piperidin-4-yl)-1H-indazole] | 3.24 to 31.6 µM | < 3.16 µM | < 3.16 µM | < 3.16 µM | 8.32 µM | 2.34 µM | 0.302 µM | 0.0832 µM |
| CC(=O)N1CCN(c2ccc3[nH]ncc3c2)CC1 [Compound 41] | > 100 µM | > 100 µM | 32.4 to 100 µM | 3.24 to 31.6 µM | – | – | – | – |
| CC1(C)CN(c2cc(Cl)cc3[nH]ncc23)CCN1S(C)(=O)=O [Compound 45, 6-chloro-4-(3,3-dimethyl-4-(methylsulfonyl)piperazin-1-yl)-1H-indazole] | < 3.16 µM | < 3.16 µM | < 3.16 µM | < 3.16 µM | 0.372 µM | 0.447 µM | 0.263 µM | 0.01 µM |
| CC1(C)CN(c2cc(C(F)(F)F)cc3[nH]ncc23)CCN1S(C)(=O)=O [Compound 78] | < 3.16 µM | 3.24 to 31.6 µM | < 3.16 µM | < 3.16 µM | – | – | – | – |
| CC1(C)CN(c2cc(Br)cc3[nH]ncc23)CCN1S(C)(=O)=O [Compound 91] | < 3.16 µM | < 3.16 µM | < 3.16 µM | < 3.16 µM | – | – | – | – |
| CS(=O)(=O)NC1CCN(c2cc(Cl)cc3[nH]ncc23)CC1 [Compound 97] | 32.4 to 100 µM | 3.24 to 31.6 µM | < 3.16 µM | < 3.16 µM | – | – | – | – |
| O=C1NC(=O)C2(CCN(c3cc(Cl)cc4[nH]ncc34)CC2)N1 [Compound 137] | < 3.16 µM | < 3.16 µM | < 3.16 µM | < 3.16 µM | – | – | – | – |
| Clc1cc(N2CCC(c3ccccc3)CC2)c2cn[nH]c2c1 [Compound 183] | 3.24 to 31.6 µM | 3.24 to 31.6 µM | < 3.16 µM | < 3.16 µM | – | – | – | – |
| CS(=O)(=O)c1ccc(-c2cc(Cl)cc3[nH]ncc23)cc1 [Compound 192, 6-chloro-4-(4-(methylsulfonyl)phenyl)-1H-indazole] | 3.24 to 31.6 µM | 3.24 to 31.6 µM | < 3.16 µM | < 3.16 µM | 5.62 µM | 15.5 µM | 0.129 µM | 0.0245 µM |
| CC(=O)NC1CCN(c2cc(Cl)cc3[nH]ncc23)C1 (stereo not shown) [Compound 198] | 3.24 to 31.6 µM | 3.24 to 31.6 µM | < 3.16 µM | < 3.16 µM | – | – | – | – |
| NC(=O)C1CCCN(c2cc(Cl)cc3[nH]ncc23)C1 (stereo not shown) [Compound 199] | 32.4 to 100 µM | > 100 µM | < 3.16 µM | < 3.16 µM | – | – | – | – |
| OC1(c2ccccc2)CCN(c2cc(Cl)cc3[nH]ncc23)CC1 [Compound 207] | 3.24 to 31.6 µM | 3.24 to 31.6 µM | < 3.16 µM | < 3.16 µM | – | – | – | – |
| CN(C)C(=O)C1CCCN(c2cc(Cl)cc3[nH]ncc23)C1 (stereo not shown) [Compound 209] | 32.4 to 100 µM | > 100 µM | 32.4 to 100 µM | 32.4 to 100 µM | – | – | – | – |
| CNC(=O)C1CCCN(c2cc(Cl)cc3[nH]ncc23)C1 (stereo not shown) [Compound 210] | 32.4 to 100 µM | > 100 µM | 3.24 to 31.6 µM | 3.24 to 31.6 µM | – | – | – | – |
| Cc1nc2c([nH]1)CN(c1cc(Cl)cc3[nH]ncc13)CC2 [Compound 211] | 32.4 to 100 µM | 32.4 to 100 µM | < 3.16 µM | 3.24 to 31.6 µM | – | – | – | – |
| Cc1nc2c([nH]1)CN(c1cc(C(F)(F)F)cc3[nH]ncc13)CC2 [Compound 212] | 32.4 to 100 µM | > 100 µM | < 3.16 µM | < 3.16 µM | – | – | – | – |
| CC(=O)N(C)c1cc(N2CCN(S(C)(=O)=O)CC2)c2cn[nH]c2c1 [Compound 213] | 32.4 to 100 µM | > 100 µM | > 100 µM | 32.4 to 100 µM | – | – | – | – |
| C[C@H]1CN(S(C)(=O)=O)CCN1c1cc(C(F)(F)F)cc2[nH]ncc12 [Compound 214] | 3.24 to 31.6 µM | 32.4 to 100 µM | < 3.16 µM | < 3.16 µM | – | – | – | – |

| SMILES | IC50 (IDO [1]; [5]) | IC50 (IDO [2]; 17 minutes, room temperature) | IC50 (TDO [3]; 17 minutes, room temperature) | IC50 (TDO [4]; 500 μM L-tryptophan) | IC50 (IDO [1]; [6]) | IC50 (IDO [2]) | IC50 (TDO [3]) | IC50 (TDO [4]) |
| --- | --- | --- | --- | --- | --- | --- | --- | --- |
| O=C1CCC2(CCN(c3cc(Cl)cc4[nH]ncc34)CC2)N1 [Compound 215] | 3.24 to 31.6 µM | 3.24 to 31.6 µM | < 3.16 µM | < 3.16 µM | – | – | – | – |
| O=C1CCCC2(CCN(c3cc(Cl)cc4[nH]ncc34)CC2)N1 [Compound 216] | 3.24 to 31.6 µM | > 100 µM | < 3.16 µM | < 3.16 µM | – | – | – | – |
| CC(=O)N1CCC(c2cc(C3CCCC3)cc3[nH]ncc23)CC1 [Compound 217] | 32.4 to 100 µM | > 100 µM | > 100 µM | > 100 µM | – | – | – | – |
| CS(=O)(=O)N1CCC(c2cc(C3CCCC3)cc3[nH]ncc23)CC1 [Compound 218] | 32.4 to 100 µM | 32.4 to 100 µM | > 100 µM | > 100 µM | – | – | – | – |
| CC1(C)CN(c2cc(OC(F)(F)F)cc3[nH]ncc23)CCN1S(C)(=O)=O [Compound 219] | 3.24 to 31.6 µM | 3.24 to 31.6 µM | < 3.16 µM | < 3.16 µM | – | – | – | – |
| NC(=O)C1CCN(c2cc(Cl)cc3[nH]ncc23)CC1 [Compound 226] | 3.24 to 31.6 µM | < 3.16 µM | < 3.16 µM | < 3.16 µM | – | – | – | – |
| CC1(C)CN(c2cc(Cl)cc3[nH]ncc23)CCN1S(N)(=O)=O [Compound 227] | < 3.16 µM | < 3.16 µM | < 3.16 µM | < 3.16 µM | – | – | – | – |
| COCCS(=O)(=O)N1CCC(c2cc(Cl)cc3[nH]ncc23)CC1 [Compound 228] | 3.24 to 31.6 µM | 3.24 to 31.6 µM | < 3.16 µM | < 3.16 µM | – | – | – | – |
| CC(=O)N1C2CCC1CN(c1cc(Cl)cc3[nH]ncc13)C2 [Compound 231] | 3.24 to 31.6 µM | 3.24 to 31.6 µM | < 3.16 µM | < 3.16 µM | – | – | – | – |
| CS(=O)(=O)N1C2CCC1CN(c1cc(Cl)cc3[nH]ncc13)C2 [Compound 232] | 3.24 to 31.6 µM | 3.24 to 31.6 µM | < 3.16 µM | < 3.16 µM | – | – | – | – |
| CC(=O)Nc1ccc(-c2cc(Cl)cc3[nH]ncc23)cc1 [Compound 246] | 3.24 to 31.6 µM | > 100 µM | < 3.16 µM | < 3.16 µM | – | – | – | – |
| CNC(=O)C1CCN(c2cc(Cl)cc3[nH]ncc23)CC1 [Compound 249] | 3.24 to 31.6 µM | 3.24 to 31.6 µM | < 3.16 µM | < 3.16 µM | – | – | – | – |
| CC(=O)NC1CCN(c2cc(Cl)cc3[nH]ncc23)CC1 [Compound 250] | 3.24 to 31.6 µM | 32.4 to 100 µM | < 3.16 µM | < 3.16 µM | – | – | – | – |
| CC(=O)N(C)C1CCN(c2cc(Cl)cc3[nH]ncc23)CC1 [Compound 251] | 3.24 to 31.6 µM | < 3.16 µM | < 3.16 µM | < 3.16 µM | – | – | – | – |
| Cc1nc2c(n1C)CCN(c1cc(Cl)cc3[nH]ncc13)C2 [Compound 252] | 32.4 to 100 µM | > 100 µM | < 3.16 µM | < 3.16 µM | – | – | – | – |
| CN(C)C(=O)c1ccc(-c2cc(Cl)cc3[nH]ncc23)cc1 [Compound 255] | 3.24 to 31.6 µM | > 100 µM | 3.24 to 31.6 µM | < 3.16 µM | – | – | – | – |
| NC(=O)c1ccc(-c2cc(Cl)cc3[nH]ncc23)cc1 [Compound 256] | 3.24 to 31.6 µM | > 100 µM | < 3.16 µM | < 3.16 µM | – | – | – | – |
| CNC(=O)c1ccc(-c2cc(Cl)cc3[nH]ncc23)cc1 [Compound 257] | 3.24 to 31.6 µM | > 100 µM | < 3.16 µM | < 3.16 µM | – | – | – | – |
